# Residues, ends and D or L forms follow the SMILES beside them.
# Experiments:
# Escherichia coli [1] = assay: Antibacterial activity against Escherichia coli assessed as reduction in bacterial growth by broth micro-dilution method; assay type: functional
# Streptococcus pneumoniae = assay: Antibacterial activity against Streptococcus pneumoniae ATCC 49619 assessed as reduction in bacterial growth; assay type: functional
# Staphylococcus aureus [2] = assay: Antibacterial activity against methicillin-resistant Staphylococcus aureus ATCC 33591 assessed as reduction in bacterial growth incubated for 24 hrs by agar plate method; assay type: functional
# Escherichia coli [3] = assay: Antimicrobial activity against Escherichia coli ATCC 25922 assessed as reduction in microbial growth incubated for 24 hrs by CLSI based broth microdilution method; assay type: functional
# J774.A1 [4] = assay: Antiinflammatory activity against mouse J774.A1 cells assessed as inhibition of LPS-stimulated TNFalpha release measured at 10 uM after 30 mins by ELISA relative to control; assay type: functional; design: scale not given: the % may be the effect or the level left; conditions: 0.5 h
# Acinetobacter baumannii = assay: Antibacterial activity against Acinetobacter baumannii ATCC 19606 assessed as bacterial growth inhibition at 32 ug/ml measured after 16 hrs by broth microdilution method; assay type: functional; conditions: dose 32 µg/ml
# J774.A1 [5] = assay: Antiinflammatory activity in mouse J774.A1 cells assessed as decrease in LPS-induced IL-6 secretion at 20 uM preincubated for 30 mins followed by LPS stimulation and measured after 24 hrs by ELISA; assay type: functional; design: scale not given: the % may be the effect or the level left; conditions: time 1470 min, 24.5 h
# Escherichia coli [6] = assay: Antibacterial activity against Escherichia coli ATCC 25922 assessed as inhibition of bacterial growth incubated for 16 to 18 hrs by broth microdilution method; assay type: functional; conditions: time 16-18 hrs
# [7] = Hemolytic activity in human RBC assessed as hemolysis up to 100 microg/ml measured after 1 hr; assay type: toxicity, cell-based, Erythrocyte; conditions: red blood cells (erythrocytes), dose < 100 µg/ml
# [8] = tested on: Staphylococcus epidermidis; assay: Antibacterial activity against Staphylococcus epidermidis assessed as reduction in microbial growth incubated for 24 hrs by broth micro-dilution method; assay type: functional
# Staphylococcus aureus [9] = assay: Antibacterial activity against Staphylococcus aureus ATCC 33591 assessed as reduction in bacterial growth; assay type: functional
# RAW264.7 [10] = assay: Anti-inflammatory activity in mouse RAW264.7 cells assessed as reduction in LPS-induced IL-6 mRNA expression at 20 ug/ml incubated for 24 hrs by qPCR analysis relative to control; assay type: functional; design: scale not given: the % may be the effect or the level left; conditions: dose 20 µg/ml
# Pseudomonas aeruginosa = assay: Antibacterial activity against multi-drug resistant Pseudomonas aeruginosa assessed as reduction in bacterial growth by broth microdilution method; assay type: functional
# Escherichia coli [11] = assay: Antibacterial activity against Escherichia coli ATCC 25922 assessed as reduction in bacterial growth by broth microdilution method; assay type: functional
# RAW264.7 [12] = assay: Immunosuppressive activity in LPS-treated mouse RAW264.7 cells assessed as inhibition of MCP-1 level at 20 ug/ml incubated for 24 hrs by ELISA analysis relative to control; assay type: functional; design: scale not given: the % may be the effect or the level left; conditions: dose 20 µg/ml
# RAW264.7 [13] = assay: Antiinflammatory activity in LPS-induced mouse RAW264.7 cells assessed as reduction in TNF alpha level at 20 ug/ml measured after 72 hrs by ELISA assay relative to control; assay type: functional; design: scale not given: the % may be the effect or the level left; conditions: dose 20 µg/ml
# RAW264.7 [14] = assay: Anti-inflammatory activity against mouse RAW264.7 cells assessed as inhibition of LPS-induced NO production at 20 ug/ml relative to control; assay type: functional; design: scale not given: the % may be the effect or the level left; conditions: dose 20 µg/ml
# RAW264.7 [15] = assay: Anti-inflammatory activity against mouse RAW264.7 cells assessed as inhibition of LPS-induced NO production at 10 uM incubated for 24 hrs by Griess reagent based analysis relative to control; assay type: functional; design: scale not given: the % may be the effect or the level left
# RAW264.7 [16] = assay: Antiinflammatory activity against LPS-stimulated mouse RAW264.7 cells assessed as inhibition of TNFalpha production at 10 uM preincubated for 27 hrs followed by LPS stimulation and measured after 12 hrs by ELISA analysis relative to control; assay type: functional; design: scale not given: the % may be the effect or the level left; conditions: time 39 hrs
# Enterococcus faecium = assay: Antibacterial activity against Enterococcus faecium clinical isolate assessed as reduction in cell growth incubated for 48 hrs by broth micro-dilution method; assay type: functional
# Staphylococcus aureus [17] = assay: Antibacterial activity against Staphylococcus aureus clinical isolate assessed as reduction in cell growth incubated for 48 hrs by broth micro-dilution method; assay type: functional
# Klebsiella pneumoniae = assay: Antibacterial activity against Klebsiella pneumoniae clinical isolate assessed as reduction in cell growth incubated for 48 hrs by broth micro-dilution method; assay type: functional
# RAW264.7 [18] = assay: Antiinflammatory activity against mouse RAW264.7 cells assessed as reduction in TNF alpha production incubated for 24 hrs by ELISA method relative to control; assay type: functional; design: scale not given: the % may be the effect or the level left
# RAW264.7 [19] = assay: Antiinflammatory activity against LPS-induced mouse RAW264.7 cells assessed as reduction in IL-6 mRNA expression incubated for 24 hrs by RT-PCR analysis relative to control; assay type: functional; design: scale not given: the % may be the effect or the level left
# [20] = Acute toxicity in Kunming mouse assessed as survival rate at 40 ug/kg, ip administered once daily for 14 days relative to control; assay type: organism-based; conditions: in vivo, 0.04 mg/kg, time 14 day, read-out: Activity
# RAW264.7 [21] = assay: Anti-inflammatory activity against mouse RAW264.7 cells assessed as reduction in LPS-induced TNFalpha production relative to control; assay type: functional; design: scale not given: the % may be the effect or the level left
# [22] = Acute toxicity in Kunming mouse assessed as survival rate at 160 ug/kg, ip administered once daily for 14 days relative to control; assay type: organism-based; conditions: in vivo, 0.16 mg/kg, time 14 day, read-out: Activity
# [23] = Acute toxicity in Kunming mouse assessed as survival rate at 80 ug/kg, ip administered once daily for 14 days relative to control; assay type: organism-based; conditions: in vivo, 0.08 mg/kg, time 14 day, read-out: Activity
# RAW264.7 [24] = assay: Anti-inflammatory activity against mouse RAW264.7 cells assessed as reduction in LPS-induced IL-6 mRNA production relative to control; assay type: functional; design: scale not given: the % may be the effect or the level left
compound,measurement,setting,value
NCCCOc1cc(OCCCN)cc(-c2cc(-c3ccccc3)cc(-c3cc(OCCCN)cc(OCCCN)c3)c2)c1,MIC,Escherichia coli [1],3.13 µg/mL
CCCCCCCCCCN(Cc1cccc2ccccc12)C(=O)[C@@H](N)CCCCN,MIC,Streptococcus pneumoniae,4.1 µM
CCCCCCN(Cc1ccc(-c2ccc(CN(CCCCCC)C(=O)[C@@H](N)CCCCN)cc2)cc1)C(=O)[C@@H](N)CCCCN,MIC,Staphylococcus aureus [2],3.1 µg/mL
CCCCCCCCCCCCCCCC(=O)N(CC(N)=O)C[C@H](CCCCN)NC(=O)N1C[C@H](Cc2ccccc2)NC(=O)CN(C(=O)CCCN)C[C@H](Cc2ccccc2)NC(=O)CN(C(=O)CCCN)C[C@H](Cc2ccccc2)NC(=O)CN(C(=O)CCCN)C[C@H](Cc2ccccc2)NC(=O)CCC1=O,MIC,Escherichia coli [3],1 µM
CC[C@H](C)[C@@H](NC(=O)[C@@H](CCCNC(=N)N)NC(=O)[C@@H](CCCNC(=N)N)NC(=O)[C@@H](CC(C)C)NC(=O)[C@@H](Cc1c[nH]c2ccccc12)NC(=O)[C@@H](C)NC(=O)[C@@H](CCCCN)NC(=O)[C@H](NC(=O)[C@@H](CCCNC(=N)N)NC(=O)[C@@H](CCCNC(=N)N)NC(=O)[C@@H](CC(C)C)NC(=O)[C@H](N)Cc1c[nH]c2ccccc12)[C@@H](C)CC)C(=O)N[C@H](CCCCN)C(=O)N[C@H](C)C(N)=O,Activity,J774.A1 [4],64.7%
same,MIC,Acinetobacter baumannii,2 µM
same,Activity,J774.A1 [5],96.4%
CCOC(=O)[C@H](Cc1ccccc1)NC(=O)C[N+](C)(C)CCCCCCCCCCCC[N+](C)(C)CC(=O)N[C@H](Cc1ccccc1)C(=O)OCC,MIC,Escherichia coli [6],0.9 µg/mL
same,HC50 at 1 h,[7],758 µg/mL
CCCCCCCCCCCCCCCC(=O)N(CCNC(=O)CN1C[C@H](Cc2ccccc2)NC(=O)[C@H](CCCCN)N(C(=O)CCc2ccccc2)CCNC(=O)[C@H](CCCCN)N(C(=O)CCc2ccccc2)CCNC(=O)[C@H](CCCCN)N(C(=O)CCc2ccccc2)CCNC(=O)CCC1=O)[C@@H](CCCCN)C(N)=O,MIC,[8],0.6 µM
same,MIC,Staphylococcus aureus [9],2.4 µM
CC[C@H](C)[C@H](NC(=O)[C@H](Cc1cnc[nH]1)NC(=O)[C@H](CO)NC(=O)[C@@H](NC(=O)[C@@H](NC(=O)[C@@H](NC(=O)[C@@H](NC(=O)[C@H](CCCNC(=N)N)NC(=O)[C@H](CC(C)C)NC(=O)[C@H](CCCCN)NC(=O)[C@H](CCC(=O)O)NC(=O)[C@H](CCCCN)NC(=O)[C@H](CC(C)C)NC(=O)[C@H](CCCCN)NC(=O)[C@H](CS)NC(=O)[C@H](CC(C)C)NC(=O)[C@H](Cc1ccccc1)NC(=O)[C@H](CC(N)=O)NC(=O)[C@H](CS)NC(=O)[C@@H](N)CCCCN)[C@@H](C)O)C(C)C)[C@@H](C)CC)[C@@H](C)O)C(=O)N[C@@H](CC(=O)O)C(=O)N[C@@H](CCCCN)C(=O)N[C@H](C(=O)N[C@@H](CC(C)C)C(=O)N[C@@H](CCCNC(=N)N)C(=O)N1CCC[C@H]1C(=O)N[C@@H](CCC(N)=O)C(=O)NCC(N)=O)C(C)C (H-KCNFLCKLKEKLRTVITSHIDKVLRPQG-NH2),Activity,RAW264.7 [10],86%
same,MIC,Pseudomonas aeruginosa,37.5 µg/mL
same,MIC,Escherichia coli [11],4.69 µg/mL
same,Activity,RAW264.7 [12],68%
same,Activity,RAW264.7 [13],60%
same,Activity,RAW264.7 [14],70%
CC(C)C[C@H](NC(=O)[C@H](Cc1c[nH]c2ccccc12)NC(=O)[C@H](CCCCN)NC(=O)[C@H](CCCCN)NC(=O)[C@H](Cc1c[nH]c2ccccc12)NC(=O)[C@H](CCCCN)NC(=O)[C@H](CCCCN)NC(=O)[C@H](Cc1c[nH]c2ccccc12)NC(=O)[C@H](CC(C)C)NC(=O)[C@@H](N)CCCCN)C(=O)N[C@@H](CCCCN)C(N)=O (H-KLWKKWKKWLK-NH2),Activity,RAW264.7 [15],50%
CC[C@H](C)[C@H](NC(=O)[C@H](CCCNC(=N)N)NC(=O)[C@H](CCCCN)NC(=O)[C@@H](NC(=O)[C@@H](NC(=O)[C@H](CCCNC(=N)N)NC(=O)[C@@H](N)CCCCN)[C@@H](C)CC)C(C)C)C(=O)N[C@@H](CCCCN)C(=O)N[C@@H](CCCCN)C(=O)N[C@@H](Cc1c[nH]c2ccccc12)C(=O)N[C@@H](CC(C)C)C(=O)N[C@@H](CCCNC(=N)N)C(N)=O (H-KRIVKRIKKWLR-NH2),Activity,RAW264.7 [16],74.2%
CC[C@H](C)[C@H](NC(=O)[C@H](Cc1c[nH]c2ccccc12)NC(=O)[C@H](CCCNC(=N)N)NC(=O)[C@H](CCC(N)=O)NC(=O)[C@@H](NC(=O)[C@H](Cc1c[nH]c2ccccc12)NC(=O)[C@H](CCCNC(=N)N)NC(=O)[C@@H](N)CCCNC(=N)N)C(C)C)C(=O)N[C@@H](CCCNC(=N)N)C(=O)N[C@@H](CCCNC(=N)N)C(=O)N[C@@H](Cc1c[nH]c2ccccc12)C(=O)N[C@@H](CCCNC(=N)N)C(=O)N[C@@H](CCCCN)C(=O)N[C@@H](Cc1c[nH]c2ccccc12)C(=O)N[C@H](C(=O)O)C(C)C (H-RRWVQRWIRRWRKWV-OH),MIC,Enterococcus faecium,5 µM
same,MIC,Staphylococcus aureus [17],5 µM
same,MIC,Klebsiella pneumoniae,5 µM
CC(C)C[C@H](NC(=O)CNC(=O)[C@H](Cc1ccccc1)NC(=O)[C@H](CCCNC(=N)N)NC(=O)[C@H](CCCNC(=N)N)NC(=O)CNC(=O)[C@H](Cc1cnc[nH]1)NC(=O)[C@H](CCCNC(=N)N)NC(=O)CNC(=O)[C@@H](NC(=O)[C@H](C)NC(=O)[C@@H](N)CO)C(C)C)C(=O)N[C@@H](CCCNC(=N)N)C(=O)N[C@@H](CCCCN)C(=O)N[C@@H](Cc1cnc[nH]1)C(=O)N[C@@H](CCCNC(=N)N)C(=O)N[C@@H](CCCCN)C(=O)N[C@@H](Cc1cnc[nH]1)C(=O)O (H-SAVGRHGRRFGLRKHRKH-OH),Activity,RAW264.7 [18],75%
same,Activity,RAW264.7 [19],46%
same,survival at 336 h,[20],10%
same,Activity,RAW264.7 [21],>50%
same,survival at 336 h,[22],75%
same,survival at 336 h,[23],70%
same,Activity,RAW264.7 [24],>50%

# Reference: ChEMBL document CHEMBL5356933, “Dual functional therapeutics: mitigating bacterial infection and associated inflammation” (RSC Med Chem, 2023)
